Measurements taken from patent US10233173B2, “Substituted 1,2,3-triazoles as NR2B-selective NMDA modulators” (JANSSEN PHARMACEUTICA NV, priority 2016, dated 2019).

Target: human GluN1/GluN2B NMDA receptors (Homo sapiens, UniProt Q05586+Q13224)
Experiment: Cell-based calcium flux (FLIPR) assay on cloned human NR1/NR2B ion channels expressed in mammalian cells
Details: standard assay; glutamate at ~EC80; FLIPR calcium flux
Summary of the method: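 Calcium influx followed by FLIPR fluorescence after 5 min compound exposure and a further 5 min co-agonist challenge: 10 μM glycine with glutamate at ~EC80 (standard) or EC40 (HTS).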

human GluN1/GluN2B NMDA receptors, sequence (Q13224 27-1484, other chains not shown): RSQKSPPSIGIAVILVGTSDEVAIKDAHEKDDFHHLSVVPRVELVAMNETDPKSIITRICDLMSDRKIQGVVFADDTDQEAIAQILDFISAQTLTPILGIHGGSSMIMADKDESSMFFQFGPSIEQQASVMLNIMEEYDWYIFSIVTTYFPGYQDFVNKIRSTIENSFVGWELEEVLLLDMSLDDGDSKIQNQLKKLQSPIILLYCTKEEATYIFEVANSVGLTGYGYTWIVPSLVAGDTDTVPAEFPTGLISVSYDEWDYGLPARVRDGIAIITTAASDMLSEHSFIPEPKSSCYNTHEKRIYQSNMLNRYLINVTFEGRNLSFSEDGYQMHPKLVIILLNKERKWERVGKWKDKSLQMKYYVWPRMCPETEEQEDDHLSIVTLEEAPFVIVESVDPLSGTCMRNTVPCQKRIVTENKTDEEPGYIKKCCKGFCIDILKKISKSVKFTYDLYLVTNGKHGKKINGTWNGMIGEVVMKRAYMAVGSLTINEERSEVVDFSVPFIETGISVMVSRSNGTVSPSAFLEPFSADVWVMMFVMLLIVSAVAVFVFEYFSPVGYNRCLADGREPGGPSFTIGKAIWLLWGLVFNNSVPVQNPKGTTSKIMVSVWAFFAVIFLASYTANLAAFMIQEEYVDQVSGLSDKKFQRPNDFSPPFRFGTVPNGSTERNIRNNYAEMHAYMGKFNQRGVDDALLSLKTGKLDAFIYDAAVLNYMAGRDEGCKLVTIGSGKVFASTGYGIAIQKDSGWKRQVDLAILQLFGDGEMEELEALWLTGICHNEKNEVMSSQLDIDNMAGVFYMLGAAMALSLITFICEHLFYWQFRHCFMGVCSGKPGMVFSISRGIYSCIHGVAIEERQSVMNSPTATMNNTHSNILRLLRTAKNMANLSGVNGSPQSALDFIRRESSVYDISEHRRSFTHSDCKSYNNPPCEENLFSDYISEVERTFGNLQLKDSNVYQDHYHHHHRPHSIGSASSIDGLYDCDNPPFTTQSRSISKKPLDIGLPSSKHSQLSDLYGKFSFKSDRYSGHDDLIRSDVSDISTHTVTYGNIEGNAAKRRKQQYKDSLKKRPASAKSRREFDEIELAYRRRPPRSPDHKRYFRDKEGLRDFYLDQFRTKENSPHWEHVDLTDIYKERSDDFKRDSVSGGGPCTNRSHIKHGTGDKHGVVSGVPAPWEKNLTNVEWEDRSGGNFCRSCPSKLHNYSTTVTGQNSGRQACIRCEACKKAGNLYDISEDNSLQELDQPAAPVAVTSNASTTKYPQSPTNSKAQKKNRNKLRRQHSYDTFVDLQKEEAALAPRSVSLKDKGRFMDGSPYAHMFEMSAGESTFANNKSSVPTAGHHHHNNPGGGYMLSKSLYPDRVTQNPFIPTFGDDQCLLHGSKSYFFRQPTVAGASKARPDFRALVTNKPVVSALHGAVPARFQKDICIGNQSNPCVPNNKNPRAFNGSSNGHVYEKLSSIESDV

Row | SMILES | IC50 [µM]
1 | COCc1ccnc(OCc2cn(-c3ccc(F)c(OC(F)F)c3)nn2)n1 [Example 499, 2-[[1-[3-(Difluoromethoxy)-4-fluoro-phenyl]triazol-4-yl]methoxy]-4-(methoxymethyl)pyrimidine] | 0.016
2 | CCc1cnc(OCc2cn(-c3cc(C)c(F)cc3F)nn2)nc1 [Example 655, 2-[[1-(2,4-Difluoro-5-methyl-phenyl)triazol-4-yl]methoxy]-5-ethyl-pyrimidine] | 0.507
3 | CC(O)(c1cnc(OCc2cn(-c3ccc(F)c(C(F)F)c3)nn2)nc1)C(F)(F)F (racemic) [Example 404, (R/S)-2-[2-[[1-[3-(Difluoromethyl)-4-fluoro-phenyl]triazol-4-yl]methoxy]pyrimidin-5-yl]-1,1,1-trifluoro-propan-2-ol] | 0.482
4 | Cc1ccc(OCc2cn(-c3ccc(F)c(C(C)(F)F)c3)nn2)nc1C [Example 560, 6-[[1-[3-(1,1-Difluoroethyl)-4-fluoro-phenyl]triazol-4-yl]methoxy]-2,3-dimethyl-pyridine] | 0.052
5 | FC(F)c1cc(-n2cc(COc3ncc(C4CC4)cn3)nn2)ccc1Cl [Example 630, 2-[[1-[4-Chloro-3-(difluoromethyl)phenyl]triazol-4-yl]methoxy]-5-cyclopropyl-pyrimidine] | 0.013
6 | COC(C)(C)c1cnc(OCc2cn(-c3ccc(F)c(C(F)(F)F)c3)nn2)nc1 [Example 436, 2-[[1-[4-Fluoro-3-(trifluoromethyl)phenyl]triazol-4-yl]methoxy]-5-(1-methoxy-1-methyl-ethyl)pyrimidine] | 3.26
7 | COc1ccnc(OCc2cn(-c3ccc(F)c(OC(F)F)c3)nn2)n1 [Example 497, 2-[[1-[3-(Difluoromethoxy)-4-fluoro-phenyl]triazol-4-yl]methoxy]-4-methoxy-pyrimidine] | 0.028
8 | Cc1cc(-n2cc(COc3ncc(OCCF)cn3)nn2)ccc1F [Example 483, 5-(2-Fluoroethoxy)-2-[[1-(4-fluoro-3-methyl-phenyl)triazol-4-yl]methoxy]pyrimidine] | 0.007
9 | FCCOc1cnc(OCc2cn(-c3ccc(F)c(Br)c3)nn2)nc1 [Example 618, 2-[[1-(3-Bromo-4-fluoro-phenyl)triazol-4-yl]methoxy]-5-(2-fluoroethoxy)pyrimidine] | 0.006
10 | COCc1ccnc(OCc2cn(-c3ccc(F)c(C(F)(F)F)c3)nn2)n1 [Example 438, 2-[[1-[4-Fluoro-3-(trifluoromethyl)phenyl]triazol-4-yl]methoxy]-4-(methoxymethyl)pyrimidine] | 0.094
11 | CC(O)c1cnc(OCc2cn(-c3ccc(Cl)c(C(C)(F)F)c3)nn2)nc1 (racemic) [Example 551, (R/S)-1-[2-[[1-[4-Chloro-3-(1,1-difluoroethyl)phenyl]triazol-4-yl]methoxy]pyrimidin-5-yl]ethanol] | 0.014
12 | Cc1c(F)ccc(-n2cc(COc3ncc(C(F)F)cn3)nn2)c1F [Example 641, 5-(Difluoromethyl)-2-[[1-(2,4-difluoro-3-methyl-phenyl)triazol-4-yl]methoxy]pyrimidine] | 0.111
13 | Fc1cccc(OCc2cn(-c3ccc(Cl)c(OC(F)F)c3)nn2)n1 [Example 394, 2-[[1-[4-Chloro-3-(difluoromethoxy)phenyl]triazol-4-yl]methoxy]-6-fluoro-pyridine] | 0.437
14 | Fc1ccc(-n2cc(COc3nccc(-n4cccn4)n3)nn2)cc1C(F)F [Example 699, 2-((1-(3-(Difluoromethyl)-4-fluorophenyl)-1H-1,2,3-triazol-4-yl)methoxy)-4-(1H-pyrazol-1-yl)pyrimidine] | 0.389
15 | CCc1cnc(OCc2cn(-c3cccc(C)n3)nn2)nc1 [Example 660, 5-Ethyl-2-[[1-(6-methyl-2-pyridyl)triazol-4-yl]methoxy]pyrimidine] | > 2.99
16 | CCOc1cnc(OCc2cn(-c3ccc(F)c(C(F)(F)F)c3)nn2)nc1 [Example 443, 5-Ethoxy-2-[[1-[4-fluoro-3-(trifluoromethyl)phenyl]triazol-4-yl]methoxy]pyrimidine] | 0.004
17 | Cc1cc(-n2cc(COc3ncccn3)nn2)ccc1F [Example 473, 2-[[1-(4-Fluoro-3-methyl-phenyl)triazol-4-yl]methoxy]pyrimidine] | 0.072
18 | Fc1ccc(-n2cc(COc3ncc(N4CCC(F)(F)C4)cn3)nn2)cc1C(F)F [Example 422, 2-((1-(3-(Difluoromethyl)-4-fluorophenyl)-1H-1,2,3-triazol-4-yl)methoxy)-5-(3,3-difluoropyrrolidin-1-yl)pyrimidine] | 0.068
19 | Cc1cnc(OCc2cn(-c3ccc(Cl)c(C(F)F)c3)nn2)nc1N(C)C [Example 633, 2-[[1-[4-Chloro-3-(difluoromethyl)phenyl]triazol-4-yl]methoxy]-N,N,5-trimethyl-pyrimidin-4-amine] | 0.057
20 | Fc1ccc(-n2cc(COc3nccc(C(F)(F)F)n3)nn2)cc1C(F)F [Example 403, 2-[[1-[3-(Difluoromethyl)-4-fluoro-phenyl]triazol-4-yl]methoxy]-4-(trifluoromethyl)pyrimidine] | 0.199

Same assay, conditions: standard assay; human GluN1/GluN2B, calcium flux (FLIPR), glutamate ~EC80

Row | SMILES | IC50 [µM]
21 | Cc1cnc(O[C@@H](C)c2cn(-c3ccc(Cl)c(OC(F)F)c3)nn2)nc1 [Example 380, 2-[(1S)-1-[1-[4-Chloro-3-(difluoromethoxy)phenyl]triazol-4-yl]ethoxy]-5-methyl-pyrimidine] | 0.237
22 | Cc1ccc(-n2cc(COc3ncc(C)cn3)nn2)cc1 [Example 260, 5-Methyl-2-[[1-(p-tolyl)triazol-4-yl]methoxy]pyrimidine] | 0.271
23 | COc1cnc(OCc2cn(-c3ccc(Cl)c(OC(F)F)c3)nn2)nc1 [Example 26, 2-[[1-[4-Chloro-3-(difluoromethoxy)phenyl]triazol-4-yl]methoxy]-5-methoxy-pyrimidine] | 0.003
24 | Fc1ccc(-n2cc(COc3ncc(Cl)cn3)nn2)cc1 [Example 164, 5-Chloro-2-[[1-(4-fluorophenyl)triazol-4-yl]methoxy]pyrimidine] | 0.371
25 | Cc1cnc(OCc2cn(-c3ccc(Cl)c(OC(F)F)c3)nn2)cn1 [Example 34, 2-[[1-[4-Chloro-3-(difluoromethoxy)phenyl]triazol-4-yl]methoxy]-5-methyl-pyrazine] | 0.159
26 | Cc1cccc(-n2cc(COc3ncc(Cl)cn3)nn2)c1 [Example 246, 5-Chloro-2-[[1-(m-tolyl)triazol-4-yl]methoxy]pyrimidine] | 0.033
27 | Nc1ccnc(OCc2cn(-c3ccc(Cl)c(OC(F)F)c3)nn2)n1 [Example 382, 2-((1-(4-chloro-3-(difluoromethoxy)phenyl)-1H-1,2,3-triazol-4-yl)methoxy)pyrimidin-4-amine] | 0.021
28 | CNc1ccnc(OCc2cn(-c3cccc(OC(F)(F)F)c3)nn2)n1 [Example 352, N-Methyl-2-[[1-[3-(trifluoromethoxy)phenyl]triazol-4-yl]methoxy]pyrimidin-4-amine] | 0.068
29 | Cc1ccnc(OCc2cn(-c3cccc(C(C)(F)F)c3)nn2)n1 [Example 296, 2-[[1-[3-(1,1-Difluoroethyl)phenyl]triazol-4-yl]methoxy]-4-methyl-pyrimidine] | 0.012
30 | Cc1nc(OCc2cn(-c3cccc(C(F)F)c3)nn2)ncc1F [Example 278, 2-[[1-[3-(Difluoromethyl)phenyl]triazol-4-yl]methoxy]-5-fluoro-4-methyl-pyrimidine] | 0.042
31 | Cc1cnc(OCc2cn(-c3ccc(F)c(Br)c3)nn2)nc1 [Example 16, 2-[[1-(3-Bromo-4-fluoro-phenyl)triazol-4-yl]methoxy]-5-methylpyrimidine] | 0.001
32 | CC(F)(F)c1cccc(-n2cc(COc3ncc(N4CC(F)C4)cn3)nn2)c1 [Example 321, 2-[[1-[3-(1,1-Difluoroethyl)phenyl]triazol-4-yl]methoxy]-5-(3-fluoroazetidin-1-yl)pyrimidine] | 0.104
33 | COc1ccnc(OCc2cn(-c3cccc(C(C)(F)F)c3)nn2)n1 [Example 307, 2-[[1-[3-(1,1-Difluoroethyl)phenyl]triazol-4-yl]methoxy]-4-methoxy-pyrimidine] | 0.033
34 | Fc1ccc(-n2cc(COc3ncc(C(F)(F)F)cn3)nn2)cc1Br [Example 44, 2-[[1-(3-Bromo-4-fluoro-phenyl)triazol-4-yl]methoxy]-5-(trifluoromethyl)pyrimidine] | 0.005
35 | FC(F)c1cnc(NCc2cn(-c3ccc(Cl)c(C(F)F)c3)nn2)nc1 [Example 204, N-[[1-[4-Chloro-3-(difluoromethyl)phenyl]triazol-4-yl]methyl]-5-(difluoromethyl)pyrimidin-2-amine] | 0.24
36 | FC(F)c1cc(-n2cc(CNc3ncc(C(F)(F)F)cn3)nn2)ccc1Cl [Example 205, N-[[1-[4-Chloro-3-(difluoromethyl)phenyl]triazol-4-yl]methyl]-5-(trifluoromethyl)pyrimidin-2-amine] | 0.616
37 | OCc1ccnc(OCc2cn(-c3ccc(Cl)c(OC(F)F)c3)nn2)n1 [Example 383, [2-[[1-[4-Chloro-3-(difluoromethoxy)phenyl]triazol-4-yl]methoxy]pyrimidin-4-yl]methanol] | 0.008
38 | FC(F)Oc1ccc(-n2cc(COc3ncccn3)nn2)cc1 [Example 329, 2-[[1-[4-(Difluoromethoxy)phenyl]triazol-4-yl]methoxy]pyrimidine] | 0.854
39 | Cc1cnc(OCc2cn(-c3ccccc3C)nn2)nc1 [Example 240, 5-Methyl-2-[[1-(o-tolyl)triazol-4-yl]methoxy]pyrimidine] | 5.58
40 | FC(F)(F)Oc1cccc(-n2cc(COc3ncc(Cl)cn3)nn2)c1 [Example 350, 5-Chloro-2-[[1-[3-(trifluoromethoxy)phenyl]triazol-4-yl]methoxy]pyrimidine] | 0.05
41 | CC(F)(F)c1cccc(-n2cc(COc3ncc(C(F)F)cn3)nn2)c1 [Example 302, 2-[[1-[3-(1,1-Difluoroethyl)phenyl]triazol-4-yl]methoxy]-5-(difluoromethyl)pyrimidine] | 0.002
